Results on two compounds are retold here after patent EP0389368B1, “New derivatives of 6-(1-piperazinyl) 2,5-pyridine diamine N,N,N',N'-substituted, procedure for their production and intermediates, their use as medicines and pharmaceutical preparations containing them” (priority 1989, dated 1990).

For assay [1], the system named is péroxydation lipidique. Put plainly: MDA formation test, non-enzymatic lipid peroxidation triggered by ferrous sulfate in rat brain homogenates. It is filed as biochemical, rat S.D. To be noted: rat brain homogenate, FeSO4, 60 min 37°C. The source says:
(§1) L'activité antioxydante est recherchée, in vitro, par le test de formation de la malonyldialdéhyde (MDA) qui mesure la péroxydation lipidique déclenchée : soit a) de façon non enzymatique par le sulfate ferreux, dans • 1) des homogénats de cerveau ou • 2) des microsomes hépatiques de rat soit b) de façon enzymatique par NADPH et le tétrachlorure de carbone, dans des microsomes hépatiques de rat. 1.1 : La formation de MDA est mesurée sur des homogénats au 1/10^e (V/V) de cerveaux de rat S.D (200 g) préparés dans un tampon de Krebs pH 7,4 selon les conditions décrites dans J. Biol. Chem. 262 (1987) 10438-10440. On incube 1 ml d'homogénat pendant 60 mn à 37°C en présence de 25 microlitres d'éthanol contenant ou non le produit à tester, après addition de 25 microlitres de solution de sulfate ferreux préparée extemporanément dans de l'eau dégazée à l'argon (200 micromoles final). On prélève 0,25 ml de mélange incubé et ajoute 1,5 ml d'acide phosphorique à 1 %, 0,25 ml de solution 200 micromoles de déféroxamine (Desféral^R Ciba Geigy) dans l'eau, 10 microlitres de tert-butylhydroxytoluène (BHT) à 8,7 mg/ml dans l'éthanol et 0,5 ml d'acide thiobarbiturique (TBA) à 0,6 % dans l'eau. On chauffe le mélange à 100°C pendant 45 mn, refroidit, ajoute 4 ml de n-butanol, centrifuge pendant 15 mn à 4000 t/mn puis lit la DO à 535 nm de la fraction surnageante. On incube dans les mêmes conditions les blancs de réaction en absence de Fe++. On calcule le pourcentage d'inhibition : pourcentage d'inhibition =(DO en présence de produit)/(DO en absence de produit) [formula]

Assay [2] relates to péroxydation lipidique. The assay is described as follows: MDA formation test, non-enzymatic lipid peroxidation triggered by ferrous sulfate/ascorbate in rat liver microsomes. It is filed as biochemical, rat S.D. To be noted: FeSO4/ascorbate, 15 min 37°C.
From the text: as §1, with “[formula] Résultats :” for “[formula]”
1.2 : La formation de MDA est mesurée sur des microsomes hépatiques de rat S.D (200 g) préparés à partir de la fraction sédimentée à 100.000 g d'un homogénat de foie dans un tampon sucrose dont on utilise la fraction restant insoluble à 100.000 g dans un tampon de pyrophosphate de sodium 100 mM pH 7,4 et que l'on homogénéise dans un tampon phosphate de sodium 100 mM pH 7,4 à 20 % de glycérol, puis que l'on conserve à -80°C. On incube les microsomes pendant 15 mn à 37°C dans 1 ml contenant du tampon Tris-HCl 35 mM, KCl 0,1 M pH 7,4, 1 mg de protéine microsomale, 5 microlitres d'éthanol renfermant ou non le produit à tester, 250 microlitres de solution d'ascorbate dans le tampon Tris (0,5 mM final), après l'addition de 250 microlitres de sulfate ferreux préparée extemporanément dans le tampon Tris (6 micromoles final). On arrête la réaction par addition de 2 ml d'une solution d'acide trichloracétique 1 M dans l'acide chlorhydrique 0,25 M contenant 0,4 % d'acide thiobarbiturique. On chauffe le mélange à 85°C pendant 25 mn, refroidit, centrifuge pendant 15 mn à 3500 t/mn puis lit la DO à 535 nm de la fraction surnageante. On effectue en même temps les blancs de réaction en absence de Fe++. On calcule le pourcentage d'inhibition comme précédemment.

Assay [3] relates to péroxydation lipidique. The assay is described as follows: MDA formation test, enzymatic lipid peroxidation triggered by NADPH and carbon tetrachloride in liver microsomes of phenobarbital-pretreated rats. It is filed as biochemical. To be noted: rat liver microsomes (phenobarbital-pretreated), NADPH + CCl4, 15 min 37°C.
From the text: as §1, with “[formula] Résultats :” for “[formula]”
2 : La formation de MDA est mesurée sur des microsomes hépatiques de rats prétraités au phénobarbital (80 mg/kg par 3 injections i.p), préparés comme décrit précédemment. On incube les microsomes pendant 15 mn à 37°C dans 1 ml contenant du tampon phosphate 0,1 M pH 7,4, 1 mg de protéine microsomale, 5 microlitres d'éthanol renfermant ou non le produit à tester, 5 microlitres de tétrachlorure de carbone (5,5 mM final) après l'addition de 50 microlitres de solution de NADPH dans le tampon phosphate (1 mM final). On arrête la réaction puis effectue le dosage selon les conditions décrites précédemment.

Assay [4] concerns oedème plantaire provoqué par l'acide arachidonique. Put plainly: Arachidonic acid-induced paw oedema test (anti-oedema activity). The class given is in vivo, rats mâles EOPS de souche Sprague Dawley. To be noted: rat; for Variation de volume de la patte 1 heure après AA: ** p < 0,01 (Dunnett). The source says: L'activité anti-inflammatoire est évaluée in vivo par mesure de l'activité anti-oedémateuse à l'aide du test de l'oedème plantaire provoqué par l'acide arachidonique décrit par M.J. Di Martino et al. (Agents and Actions 1987 21 3/4 303).
Les animaux d'expérimentation sont des rats mâles EOPS de souche Sprague Dawley pesant 150-170 g (Iffa Credo).
Ce test est pratiqué sur des groupes de 8 rats mâles pesant 130 à 150 g à jeun depuis 16 heures. L'acide arachidonique est injecté sous l'aponévrose plantaire d'une patte postérieure à la dose de 0,2 mg sous un volume de 0,1 ml. Le volume de la patte est mesuré à l'aide d'un pléthysmomètre à eau, avant et 1 heure après l'injection de l'acide arachidonique. La différence entre ces deux volumes représente le degré d'inflammation. Les animaux sont traités par les produits à étudier ou le véhicule seul en même temps que l'injection de l'acide arachidonique.
Les produits étudiés ont été administrés par voie orale sous un volume de 4 ml/kg après avoir été mis en suspension dans la méthylcellulose à 0,5%. Toutes les expériences ont été réalisées avec comme produit de référence la dexaméthasone à la dose de 0,5 mg/kg par voie orale.
Les résultats sont exprimés en variation de volume de la patte 1 heure après l'injection d'acide arachidonique (AA), en absence ou en présence du produit à tester administré à différentes doses.
L'interprétation statistique des résultats a été effectuée selon le test de Dunnett (* p < 0,05 - ** p < 0,01) ou selon le test de Mann Whitney (° p < 0,05 - °° p < 0,01).
Pour chaque dose administrée par voie orale, on calcule le pourcentage d'inhibition de l'oedème par le produit testé, par rapport au témoin.

SMILES strings stand for the structures.

Turning to `CCN(CC)c1ccc(N(CC)CC)c(N2CCN(CC(=O)[C@H]3[C@H](C)C[C@H]4[C@@H]5CCC6=CC(=O)C=C[C@]6(C)C5=CC[C@@]43C)CC2)n1` [Produit de l'ex. 2, 21-[4-[3,6-bis(diéthylamino) 2-pyridyl] 1-pipérazinyl] 16alpha-méthyl pregna-1,4,9(11)-triène-3,20-dione], the “pourcentage d'inhibition” value in assay [1] (1.10^-4M, 100 µM) is on record as 55,6 ± 1,3 pourcentage; in assay [1] (1.10^-5M, 10 µM) it was 63,8 ± 4,3 pourcentage; in assay [1] (5.10^-4M, 500 µM) it was 60,4 ± 4,4 pourcentage; in assay [2] (1.10^-5M, 10 µM) it was 99,8 pourcentage; in assay [2] (1.10^-6M, 1 µM), 42,0 ± 5 pourcentage; in assay [2] (5.10^-6M, 5 µM), 99,5 pourcentage. Also, the “pourcentage d'inhibition” value is 91 ± 1 pourcentage in assay [3] (1.10^-5M, 10 µM); 49 ± 1,5 pourcentage in assay [3] (1.10^-6M, 1 µM); 88 ± 1 pourcentage in assay [3] (5.10^-6M, 5 µM). For the same compound, the “Variation de volume de la patte 1 heure après AA” value in assay [4] (dose 0,5 mg/kg oral) is 0,32 ± 0,04** cm3; in assay [4] (dose 1 mg/kg oral), 0,32 ± 0,01** cm3. For the same compound, in assay [4] (result in words, from the dose of 0,5 mg/kg oral), the activité anti-inflammatoire entry is on record as “forte activité”.

In the case of `CCN(CC)c1ccc(N(CC)CC)c(N2CCNCC2)n1` [Produit de l'ex. 1, N,N,N′,N′-tétraéthyl 6-(1-pipérazinyl) 2,5-pyridine diamine], the “pourcentage d'inhibition” value in assay [1] (1.10^-4M, 100 µM) is 67,4 ± 8,6 pourcentage; in assay [1] (1.10^-5M, 10 µM), 60,3 ± 9,1 pourcentage; in assay [1] (5.10^-4M, 500 µM) it was 74,2 ± 3,8 pourcentage; in assay [2] (1.10^-5M, 10 µM) it was 99,4 pourcentage; in assay [2] (1.10^-6M, 1 µM) it was 44,0 pourcentage; in assay [2] (5.10^-6M, 5 µM), 99,4 pourcentage. Besides, the “pourcentage d'inhibition” value was 96 ± 1 pourcentage in assay [3] (1.10^-5M, 10 µM); 43 ± 3 pourcentage in assay [3] (1.10^-6M, 1 µM); 93 ± 0,2 pourcentage in assay [3] (5.10^-6M, 5 µM). Besides, the “Variation de volume de la patte 1 heure après AA” value in assay [4] (dose 20 mg/kg oral) is 0,33 ± 0,06** cm3.
